Data published in patent US20210363483A1, “METHOD FOR PRODUCING CULTURED CELL, AND METHOD FOR PRODUCING THERAPEUTIC AGENT FOR SPINAL CORD INJURY DISEASE” (REGENESIS SCIENCE CO., LTD., priority 2017, published 2021).

Test system: GDNF mRNA
Experiment: GDNF mRNA expression by real-time PCR in cultured human skin-derived stem cells
Type: cell-based
Protocol: To find a compound or cytokine to increase the expression of GDNF in cells, following 6 candidate materials were examined: Valproic Acid (VA), Platelet-Derived Growth Factor (PDGF), SAG (or Purmorphamine or rh-Sonic Hedgehog (PeproTech)), Bone Morphogenic Protein 4 (BMP4). These 6 materials were added to 7 wells, which had reached to confluence in Example 1, in the following combinations: (1) Control (not added) (2) VA (1 uM), (3) VA (1 uM)+PDGF (long/ml), (4) VA (1 uM)+SAG (0.3 uM), (5) PDGF (long/ml), (6) SAG (0.3 uM), (7) […] (long/ml). 72 hours after the addition, total RNA was extracted from each well by TRIzol method. Using “ReverTra Ace (trade mark) qPCR RT kit”, a cDNA synthesis kit for PCR, 0.5 ug of each total RNA was added to 10 μL of ReverTra Ace (trade mark) qPCR RT kit to synthesize respective cDNA. […]
PCR was performed by three-step method under the conditions of annealing 60° C./elongation 72° C. and the steps (1) to (2) were repeated for 40 cycles. In the last step, a Melting Curve was analyzed and it was confirmed that no primer dimer was produced. […]

| SMILES | expression of GDNF mRNA (GDNF mRNA/GAPDH mRNA) compared with control (Purmorphamine 1.5 uM used in place of SAG) [times] | expression of GDNF mRNA (GDNF mRNA/GAPDH mRNA) compared with control (SAG 0.3 uM, 72 hours after addition) |
| --- | --- | --- |
| c1ccc2c(Oc3nc(Nc4ccc(N5CCOCC5)cc4)c4ncn(C5CCCCC5)c4n3)cccc2c1 [Purmorphamine, 9-Cyclohexyl-N-[4-(4-morpholinyl)phenyl]-2-(1-naphthalenyloxy)-9H-purin-6-amine] | ~10 | – |
| CNC1CCC(N(Cc2cccc(-c3ccncc3)c2)C(=O)c2sc3ccccc3c2Cl)CC1 (centres unmarked) [SAG, N-Methyl-N′-(3-pyridinylbenzyl)-N′-(3-chlorobenzo[b]thiophene-2-carbonyl)-1,4-diaminocyclohexane] | – | more than 10 times |
